Assays:
[1] = tested on: female and male rats; details: supra-pharmacological doses, ref [47]; cited from earlier work
From the text: However, the in vitro ...

[2] = Mouse C-peptide in plasma after sc injection in DIO-mice; format: in vivo; details: 600 nmol/kg sc, P<0.05
Method: Before experiments were initiated, the systemic levels of mouse insulin were measured using a Rat/Mouse Insulin ELISA kit (Millipore Corp., Bilerica, MA, USA), according to manufacturer’s instructions. […] Mouse C-peptide was assayed with Rat/Mouse C-peptide 2 ELISA kit (Millipore), according to manufacturer’s instructions. […] Insulin X10 was measured in mouse plasma using a wash-LOCI assay, as also described recently. See Materials S1 for detailed information regarding these assays.
At termination of experiments whole blood was collected in EDTA-coated tubes (BD Biosciences) by cardiac puncture. Blood plasma was isolated by centrifugation for 10 min at 1500 rpm and thereafter stored at -80 °C until analysis. Mouse C-peptide was assayed with Rat/Mouse C-peptide 2 ELISA kit (Millipore) according to manufacturer’s instructions. […] In initial tests the sensitivity and specificity of the assay in mouse plasma was confirmed. […] After incubation for another 30 min at 21-22 °C chemiluminescence was measured in an Envision plate reader (Perkin Elmer). […] Finally 10 µl of streptavidin coated donor beads were added, incubated as above and immediately after this chemiluminescence was measured using an Envision plate reader. […]

[3] = tested on: IGF-1 receptor (IGF-1R); details: ref [10], [11]; cited from earlier work
[4] = tested on: insulin receptor (IR); details: cited from earlier work
[5] = tested on: female Sprague Dawley rats; details: rat, in vivo; cited from earlier work
[6] = tested on: P-Akt (Ser473); test: Signalling in MC38 cells, Western blot P-Akt; format: cell-based, mouse; details: covers both Akt (Ser473) and p70S6K (Thr389)
Method: MC38 cells (mouse cell line described by Corbett et al. (1975) and generously provided by Dr. Pnina Brodt, McGill University, Montreal, QC) and MCF-7 cells (ATCC, Manassas, VA, USA), were cultivated in DMEM medium containing 4.5 g/l glucose (Wisent Inc., Montreal, QC, Canada) supplemented with 10% (v/v) fetal bovine serum (FBS, Invitrogen) and 20 μg/ml gentamicin (Sandoz Canada, Boucherville, QC, Canada) (i.e., growth medium). Cells used in animal experiments were trypsinized, washed once in PBS and resuspended in PBS (4°C) at a concentration of 5.0 × 10^6 cells/ml and kept on ice until sc injection in the mice. For signalling experiments MC38 cells were cultivated in growth medium for two days until 80-90% confluent, cell cultures were then rinsed once in PBS (room temperature), and starvation medium (similar to growth medium, except it contained only 0.25% (v/v) FBS and no phenol red) was added for 3 h. […] Each signalling experiment comprised two replicate samples per treatment and three independent experiments were performed. […] Data describing IR and IGF-1R expression in various mouse tissues were analysed in a one-way ANOVA followed by pairwise comparisons between tissues using multiple t-test with Bonferroni correction.

[7] = cited from earlier work
From the text: Further studies are needed to clarify if this effect is also observed during other experimental conditions. However, our in vivo data for ...

Row | Substance | Incidence of mammary carcinoma and pheochromocytoma [1] | Levels of C-peptide in plasma 0.5 h after treatment compared to >5 h [2] | Increase of binding affinity to the IGF-1 receptor (vs human insulin) [3] | Increase of binding affinity to the insulin receptor (vs human insulin) ([4]; ref [10], [11]) [fold] | Off-rate from the IR compared to native human insulin ([4]; ref [12]) | Incidence of spontaneous mammary tumors [5] | Increase of phosphorylation of Akt (Ser473) and p70S6K (Thr389) compared to HI [6] | Mitogenic potency relative to HI, some cell lines ([7]; ref [10], [13], [46]) [fold] | Mitogenic potential relative to HI in vitro ([7]; ref [14])
1 | IGF-1: recombinant human IGF-1 (Increlex, IPSEN Pharma GmbH) | increased the incidence |  |  |  |  |  |  |  | 
2 | human insulin [HI] |  | significantly decreased |  |  |  |  |  |  | 
3 | insulin analog B10Asp [X10] |  | significantly decreased | 3- to 5 fold | 2 | decreased off-rate | increased the incidence | 35–90% | 10 | 3–15 fold
